Key:
[1] = Human liver microsome stability (Assays #1-#4); format: in vitro ADME; settings: Assay #1, substrate 1 μM, protein 0.1 mg/mL, 37° C.; for half-life at 1 μM: human, liver microsomes
Method: The results for Examples 1 and 3 were t112=87 and 32 minutes with 78% and 60% remaining after 30 minutes, respectively, compared to shorter half-lives and lesser amounts left for Examples 2 and 4-6 (see Note 6 for conditions).
Under similar in vitro human liver microsome preparation stability assay conditions at 37° C. for 30 or 60 minutes in a separate head-to-head experiments (Assay #2 and #3) (see Note 6 for conditions) with Examples 1 and 3 and the comparator Compound #290 from U.S. Pat. No. 5,591,737, the amounts left after the 30 minute incubation (with […] microsome protein vs 0.1 mg/mL for Assay #3) were 67, 99 and 79% and for the 60 minute incubation were 94, 73 and 77%, respectively. Similarly, in a third repeat assay (Assay #4 with—NADPH controls) (see Note 6 for conditions), 90 and 72% were remaining for Example 1 and the comparator compound, respectively. […]
Note 6: Human Liver Microsome Assay # 1-3 conditions. • Assay experiment #1: Substrate concentration=1 μM; Protein concentration=0.1 mg/mL; incubation time=30 minutes at 37° C. • Assay experiment #2: Substrate concentration=1 μM; Protein concentration 0.1 mg/mL; incubation time=30 minutes at 37° C. • Assay experiment #3: Substrate concentration=1 μM; Protein concentration=0.1 mg/mL; incubation time=60 minutes at 37° C. • Assay experiment #4: Substrate concentration=1 μM; Protein concentration=1.0 mg/mL; incubation time=60 minutes at 37° C.

[2] = target: T1, Human Leukocyte Elastase (HLE) (Homo sapiens, UniProt P08246); test: HLE time-dependent inactivation assay, PMN cell lysate source of HLE; format: biochemical; settings: 3 nM, inhibitor 26.5 nM, substrate 1 mM
T1 construct: The PMN lysates were prepared by isolating human neutrophils from whole blood; from tissue; host or cells: human neutrophils (PMN) isolated from whole blood, lysed by sonication in PBS
T1 sequence (P08246 30-267): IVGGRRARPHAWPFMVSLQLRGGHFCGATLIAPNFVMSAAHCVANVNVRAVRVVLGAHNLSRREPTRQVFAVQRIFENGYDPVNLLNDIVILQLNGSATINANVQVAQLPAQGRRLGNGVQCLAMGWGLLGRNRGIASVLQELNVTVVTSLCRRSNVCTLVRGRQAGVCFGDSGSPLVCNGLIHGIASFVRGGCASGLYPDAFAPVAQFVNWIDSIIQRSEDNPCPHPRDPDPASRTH
Method: (§1) As exemplified in Table 1, the Examples 1-6 of this application were determined to be potent, mechanism-based inactivators of Human Leukocyte Elastase (HLE) in two different in vitro time-dependent incubation assays. The two assays are described at the end of this Biological Data Section in Note 1. See the literature references in Note 2 for a discussion of the mechanism for this type of beta-lactam inactivation of HLE. Two sources of enzyme were used; either purified elastase or crude extracts of human polymorphonuclear leukocytes (PMN) containing elastase activity. […] For the compound of Example 1, the results were 638,000 M^−1 sec^−1 (average of n=3) and 809,000 M^−1 sec^−1 (n=4), respectively, and for Example 3, 804,000 M^−1 sec^−1 (average of n=4) and 952,000 M^−1 sec^−1 (n=5). […] Note that in this assay, head-to-head comparisons are particularly valuable.
(§2) Note 1: Enzyme Assays for the Inhibition of Human Polymorphonuclear Leukocyte Elastase Via Hydrolysis of N-Methyoxysuccinyl-alanyl-alanyl-prolylalanine-p-nitroanilide Reagent.
(§3) Prepare substrate by first dissolving in DMSO to 30 mg/ml (50 mM). Further dilute the substrate to 10 mM and add 25 μl to a final volume of 250 μl for a final concentration of 1 mM in the assay.
(§4) Prepare the enzyme in TES Buffer (0.045M TES (N-tris[hydroxymethyl]methyl-2-mino-ethanesulfonic acid), 0.45 M NaCl, pH 7.5.). Two sources of enzyme were used; either crude extracts of human polymorphonuclear leukocytes (PMN) containing elastase activity or purified elastase. The PMN lysates were prepared by isolating human neutrophils from whole blood after dextran sedimentation, ficoll density separation and red blood cell lysis. The neutrophils were lysed in PBS with sonciation and the concentration of active enzyme was determined by utilizing a standard curve of purified enzyme. For the purified elastase, the enzyme was resuspended at 10 mg/ml (˜340 μM) in 0.02M NaOAc, 50% glycerol. For both the PMN lysate and purified enzyme, a further dilution of enzyme was made to 30 nM and 25 μl was added to a final volume of 250 μl. The final concentration of enzyme in the assay was 3 nM.
(§5) The inhibitors to be tested were dissolved in DMSO at 10 mM. Directly before use, the inhibitors were further diluted into TES Buffer to 265 nM and […] was added to a final volume of 250 μl. The final concentration of inhibitor in the assay was 26.5 nM.
(§6) In a 96-well plate (flat bottom, polystyrene) 175 μl TES Buffer, 25 μl substrate, 25 μl inhibitor and 25 μl enzyme were added. After thoroughly mixing, the plate was then read in a spectrophotometer at 410 nm for 30 minutes counting every 10 seconds. Results were expressed as Kinact/Ki which is the second order rate constant in per mole per second for inactivation of the enzyme.

[3] = target: T1, Human Leukocyte Elastase (HLE); test: HLE time-dependent inactivation assay, purified elastase; format: biochemical; settings: purified elastase 3 nM; inhibitor 26.5 nM; substrate 1 mM
Method: as §1, §2, §3, §4, §5, §6

Row | % Left @ 30 min [1] [%] | half-life at 1 μM [1] [min] | kinact/KI [2] [M⁻¹ s⁻¹] | kinact/KI [3] [M⁻¹ s⁻¹] | Structure (SMILES)
1 | 31 | 30 | 375000 | – | CCC[C@@H](NC(=O)N1C(=O)C(CC)(CC)[C@@H]1Oc1ccc(C(=O)N(CC)CCN(CC)CC)cc1)c1ccc(C(F)(F)F)cc1 [Example 5, 2-(S)-[4-(((2-(Diethylamino)ethyl)ethylamino)carbonyl)phenoxy]-3,3-diethyl-N-[1-(R)-(4-(trifluoromethyl)phenyl)butyl]-4-oxo-1-azetidinecarboxamide]
2 | 51 | 25 | 427000 | 290000 | CCC[C@@H](NC(=O)N1C(=O)C(CC)(CC)[C@@H]1Oc1ccc(C(=O)N(C)CCN(C)C)cc1)c1ccc(C(F)(F)F)cc1 [Example 4, 2-(S)-[4-(((2-(Dimethylamino)ethyl)methylamino)carbonyl)phenoxy]-3,3-diethyl-N-[1-(R)-(4-(trifluoromethyl)phenyl)butyl]-4-oxo-1-azetidinecarboxamide]
